Measurements reported in PubChem BioAssay (NCI).
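Growth conditions: 96-well plates. Treatment: test compound, 48 hours, 5 concentrations. Analysis: linear interpolation between bracketing concentrations; unreached endpoints set to highest concentration. Here, GI50 denotes the concentration required for 50% inhibition of growth. TGI is the concentration that stops growth completely.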

Assays:
Experiment in all cases: DTP human tumour cell line panel, 48 h
SR leukemia = tested on: SR leukemia
RPMI-8226 leukemia = tested on: RPMI-8226 leukemia
KM20L2 colon = tested on: KM20L2 colon
SNB-19 CNS = tested on: SNB-19 CNS
MOLT-4 leukemia = tested on: MOLT-4 leukemia
HT29 colon = tested on: HT29 colon
RXF 393 renal = tested on: RXF 393 renal
M14 melanoma = tested on: M14 melanoma
SNB-78 CNS = tested on: SNB-78 CNS
DMS 114 small cell lung = tested on: DMS 114 small cell lung
M19-MEL melanoma = tested on: M19-MEL melanoma
T-47D breast = tested on: T-47D breast

| SMILES | TGI (SR leukemia) [µM] | TGI (RPMI-8226 leukemia) [µM] | TGI (KM20L2 colon) [µM] | TGI (SNB-19 CNS) [µM] | TGI (MOLT-4 leukemia) [µM] | TGI (HT29 colon) [µM] | TGI (RXF 393 renal) [µM] | TGI (M14 melanoma) [µM] | TGI (SNB-78 CNS) [µM] | TGI (DMS 114 small cell lung) [µM] | TGI (M19-MEL melanoma) [µM] | GI50 (SR leukemia) [µM] | GI50 (RPMI-8226 leukemia) [µM] | GI50 (SNB-19 CNS) [µM] | GI50 (MOLT-4 leukemia) [µM] | GI50 (HT29 colon) [µM] | GI50 (RXF 393 renal) [µM] | GI50 (M14 melanoma) [µM] | GI50 (T-47D breast) [µM] | TGI (T-47D breast) [µM] |
| --- | --- | --- | --- | --- | --- | --- | --- | --- | --- | --- | --- | --- | --- | --- | --- | --- | --- | --- | --- | --- |
| Cc1c(C)c([N+](=O)[O-])c2c(c1N)C(=O)c1ccccc1C2=O | > 100 | > 100 | > 100 | > 100 | > 100 | > 100 | > 100 | > 100 | > 100 | > 100 | > 100 |  |  |  |  |  |  |  |  |  |
| O=C1NC(=NCCc2ccc(Cl)cc2)S/C1=C\c1ccc2ncccc2c1 | > 25 | > 25 |  | > 25 | > 25 | > 25 | > 25 | > 25 |  |  |  | 6.92 | > 23 | > 25 | 18.8 | > 13 | 11 | 25 | 18.1 | > 25 |
| CC(C)(C)C[C@H]1N[C@@H](C(=O)NC2CCC(O)CC2)[C@H](c2cccc(Cl)c2F)[C@@]12C(=O)Nc1cc(Cl)ccc12 (some centres undefined) | 5.45 | 8.41 |  | 21.3 | 1.81 | 19.9 | 17.2 | 17.3 |  |  |  | 0.189 | 2.63 | 5.93 | 0.314 | 4.34 | 3.38 | 4.05 | 5.98 | 22.8 |
| O=C1CC23CCCCCCCCCCC2(C1)CC(=O)C3 (centres undefined) | 56.5 | 45.4 |  | 76.3 | 56.2 | 37.2 | 89.2 | 44.4 |  | 77.6 | 48.4 |  |  |  |  |  |  |  |  |  |
| Cc1ccccc1NC(=O)CSc1nnc(-c2ccc(N=Cc3ccc(Cl)cc3)cc2)o1 | > 100 | > 100 | > 100 | > 100 | > 100 | > 100 | > 100 | > 100 | > 100 | > 100 | > 100 |  |  |  |  |  |  |  |  |  |
| COC1(OC)C2(Cl)C3=CCCC=C3C1(Cl)C(Cl)=C2Cl | 53.5 | 34 | 60.4 | > 100 | 76.9 | 84.3 | 47.8 | 31.4 | > 100 | 49.9 | 47.4 |  |  |  |  |  |  |  |  |  |
| Cc1cccc(C)c1NC(=O)C(=O)Cc1nc2ccccc2s1 |  | > 100 | > 100 | > 100 |  | > 100 | > 100 | > 100 | > 100 | > 100 | > 100 |  |  |  |  |  |  |  |  |  |
| C=C1C(=O)O[C@@H]2/C=C(/C)[C@@H](OC(C)=O)C/C=C(\C)C(O)[C@@H](OC(=O)/C(C)=C\C)C12 (some centres undefined) | 55.6 | 60.7 |  | > 100 | 74.6 | 40.1 | 79.4 | > 100 |  |  |  |  |  |  |  |  |  |  |  | 39.7 |
| OCc1ccc(N(Cc2ccc(F)cc2)Cc2ccc(F)cc2)cc1Cl | 24.4 | 30.4 |  | 31.6 | 30.1 | 23.3 | 26.3 | 20.2 |  |  |  | 5.51 | 8.44 | 12.9 | 7.84 | 9.66 | 12.7 | 5.79 | 3.31 | 15.4 |
| CC1CCC2C(C)C(=O)OC2C2(C)C(=O)C=CC12 (centres undefined) | > 10 | > 10 |  | > 10 | > 10 | > 10 | > 10 | > 10 |  |  |  |  |  |  |  |  |  |  |  | > 10 |
| COc1ccc(-n2c(=S)sc3c(Cl)nc(C)nc32)c(OC)c1 | 5.52 | 14 |  | 5.42 | 5.48 | 6.28 | 4.07 | 4.05 |  |  |  | 1.42 | 3.45 | 2.4 | 2.12 | 2.41 | 2 | 1.84 | 6.42 | 21.6 |
| COC(=O)C1CC(c2ccc(OC)c(OC)c2)OC1=O (mixture of isomers) | > 100 | > 100 | > 100 | > 100 | > 100 | > 100 | > 100 | > 100 | > 100 | > 100 | > 100 |  |  |  |  |  |  |  |  |  |
| Cc1cccc(C2NC(=O)c3ccccc3N2)c1 (centres undefined) | > 100 | > 27 |  | > 100 | > 23.9 | > 26.3 | > 23.7 | > 54.8 |  |  |  |  |  |  |  |  |  |  |  | > 100 |
| COc1cc(O)ccc1C(=S)SC | > 100 | 55.6 |  | > 100 | 92.2 | > 100 | > 100 | > 100 |  |  |  |  |  |  |  |  |  |  |  | > 100 |
| COC(=O)C1C=CCC2CCCCC21N1CCCC1 (centres undefined) | > 100 | > 100 | > 100 | > 100 | > 100 | > 100 | > 100 | > 100 | > 100 | > 100 | > 100 |  |  |  |  |  |  |  |  |  |
| COc1cc(/C=N/NC(=O)c2cnn3c2NC(c2ccccc2)C3)ccc1OC1CCCC1 (centres undefined) | 3.78 | 4.91 |  | 10.9 | 11.1 | 8.55 | 1.47 | 5.19 |  |  |  | 0.252 | 0.527 | 0.923 | 1.23 | 0.467 | 0.357 | 0.646 | 0.704 | 10.4 |
| COc1ccc(-c2ccc(C3CC(c4ccccc4)=NN3)o2)c([N+](=O)[O-])c1 (centres undefined) | 87.9 | > 100 |  | > 100 | 72.9 | > 100 | > 100 | > 100 |  |  |  | 30.3 | 31 | 86.2 | 22.9 | 51.3 | 40 | 51.9 | > 100 | > 100 |
| Oc1ccc(Cl)cc1C=Nc1cnc2ccccc2c1 | > 100 | 85.6 |  | > 100 | 47.2 | > 100 | > 100 | > 100 |  |  |  |  |  |  |  |  |  |  |  | 51.3 |
| O=C1NC(O)n2c(=O)[nH]c(=O)n21 (centres undefined) | > 100 | > 100 | > 100 | > 100 | > 100 | > 100 | > 100 | > 100 | > 100 |  | > 100 |  |  |  |  |  |  |  |  |  |
